{
  "source": "patent US12391660B2",
  "about": "“Heteroaromatic acetamide derivative, and preparation and use thereof” (Hangzhou Westan Pharmaceutical Technology Co., Ltd, priority 2019, dated 2025)",
  "test_system": "asthmatic rats",
  "assay": "Ovalbumin-induced asthma rat model (HE staining, lung tissue inflammation area, airway inflammation score)",
  "format": "in vivo, SD rats",
  "description": "4. Effects of Compounds on Ovalbumin-Induced Asthma in Mouse and Rat Models\nSPF-grade SD male rats (purchased from Zhejiang Academy of Medical Sciences, license number SCXK (Zhejiang) 2019-0002) with a body weight of 160-180 g; and SPF-grade female BABL/c mice (purchased from Zhejiang Weitong Lihua Experimental Animals Technology Co., Ltd., license number SCXK (Zhejiang) 2019-0001) with a body weight of 16-18 g were used. The above animals were raised by the Experimental Animal Center of Zhejiang Academy of Traditional Chinese Medicine.\nFormulation of compound solution: compound was vortexed in a solvent system, dissolved by ultrasound, and prepared into a solution at a corresponding concentration, which was prepared just before use (the solvent system was composed of 5% Solutol HS 15, 5% DMSO and 90% physiological saline).\nBABL/c mice or SD rats were randomly divided into: normal control group, model control group, dexamethasone group (0.72 mg/kg), and the respective test compound groups (one group for each dose), 10 mice in each group; 6 rats in each group.\nSensitization of rats: On Day 1 and Day 8, the model control group and the respective drug administration groups were intraperitoneally injected with 1 ml of 10% OVA sensitizing solution, and the normal group was intraperitoneally injected with an equal volume of normal saline.\nRat: from Day 15, the dexamethasone group and the respective test compound groups were intraperitoneally injected, 20 minutes before challenge, with the corresponding drugs with an injection volume of 0.3 ml/100 g; the model control group was intraperitoneally injected, 20 minutes before challenge, with an equal volume of solvent system; and the normal control group was not treated. Administration was conducted for 7 consecutive days. […]\nThe rat was anesthetized with 10% urethane at 1.3 ml/100 g volume, and the left lung tissue was taken and fixed in 4% neutral formaldehyde, paraffin-embedded according to routine operation, sectioned for HE staining. […] NIS-Elements D 3.2 software was used to manually integrate and measure the total area of lung tissue sections and the inflammation area under all fields of view, the total areas under each field of view were accumulated, and the percentage of the cumulative area of inflammation in the total area was calculated, wherein the percentage of inflammation area=cumulative area of inflammation/total area×100%.\nAll data were expressed as mean±standard deviation (x±s), and the data were processed by SPSS 20.0 statistical software. […]",
  "key": {"[1]": {"conditions": "intraperitoneal injection, vs model group, P<0.05, 0.01"}},
  "data": [
    {"smiles": "N#Cc1ccc(NC2(C(=O)N3CCN(c4ccc(C(F)(F)F)cc4)CC3)CCCC2)cc1", "note": "[Compound 1, 4-((1-(4-(4-(trifluoromethyl)phenyl)piperazine-1-carbonyl)cyclopentyl)amino)benzonitrile]", "values": [
      {"measurement": "lung tissue inflammation and inflammatory cell infiltration around the airway (HE x40)", "setting": "compared with the model group", "result": "significant improvement"},
      {"measurement": "airway inflammation score", "setting": "[1]", "result": "significantly decreased"},
      {"measurement": "lung tissue inflammation area", "setting": "[1]", "result": "significantly decreased"}
    ]}
  ]
}
